# Reference: publication PMC10397409, “The action of physiological and synthetic steroids on the calcium channel CatSper in human sperm” (Frontiers in Cell and Developmental Biology, 2023)
# Test system: human sperm
# Test: Sperm penetration in viscous media (modified Kremer test)
# Format: cell-based
# Details: steroids 10 µM, P4 5 µM, 1 h, 1% methylcellulose
# Method: The ability of sperm to penetrate in viscous media similar in viscosity to that found in the female reproductive tract was assessed using the modified Kremer test, as previously described ([Rahban et al., 2021]). Briefly, swim-up recovered and capacitated sperm cells at 3 x 10^6/mL were incubated in the absence (DMSO) or presence of steroids (10 µM), or P4 (5 µM) as a positive control for 1 h at 37°C. A glass capillary (0.2 × 4.0 × 50 mm, CM scientific, UK) was filled with 1% (w/v) methylcellulose (MC, 4000 centipoises cP) prepared with HTF media supplemented with 3 mg/mL HSA, respective compounds (10 µM), P4 (5 µM), or DMSO. The glass capillary tube was then sealed on one end with wax (Vitrex, UK) and added to the sperm cells on the open end. Sperm penetration was assessed after 1 h of incubation at 37°C by counting sperm at 1 cm using a microscope with a ×10 objective.
structure (smiles),measurement,value
C[C@]12Cc3c[nH]nc3C[C@@H]1CC[C@@H]1[C@@H]2CC[C@@]2(C)[C@H]1CC[C@]2(C)O [Stanozolol],number of sperm penetrating viscous medium at 1 cm,significant increase in cell number
